ChEMBL document CHEMBL1201862, “PubChem BioAssay data set” (2004)
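Where inhibition never reached the appropriate level, the endpoint shown equals the highest concentration tested. Otherwise, values were interpolated linearly from a five-concentration, 48-hour dose response in 96-well plates. GI50: concentration for 50% inhibition of growth.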 Activity calls are given as the source filed them. Rule as the data show it: active = GI50 up to about 1.1 µM and inactive = higher.

What was measured:
Experiment in all cases: NCI anticancer screen, dose series, 48 h
[1] = system: HCT-116
[2] = system: NCI-H522
[3] = system: MDA-MB-231
[4] = system: U-251
[5] = system: SN12C
[6] = system: SK-MEL-28
[7] = system: DU-145
[8] = system: OVCAR-5
[9] = system: M14
[10] = system: UO-31
[11] = system: NCI-H226
[12] = system: MOLT-4
[13] = system: HL-60
[14] = system: NCI/ADR-RES
[15] = system: IGROV-1
[16] = system: EKVX
[17] = system: MDA-MB-435
[18] = system: SF-539
[19] = system: Hs-578T

| SMILES | GI50 [1] | GI50 [2] | GI50 [3] | GI50 [4] | GI50 [5] | GI50 [6] | GI50 [7] | GI50 [8] | GI50 [9] | GI50 [10] | GI50 [11] | GI50 [12] | GI50 [13] | GI50 [14] | GI50 [15] | GI50 [16] | GI50 [17] | GI50 [18] | GI50 [19] |
| --- | --- | --- | --- | --- | --- | --- | --- | --- | --- | --- | --- | --- | --- | --- | --- | --- | --- | --- | --- |
| CO[C@H]1O[C@@H]2CO[C@@H](c3ccccc3)O[C@H]2[C@@H]2C/C=C\CCC[C@@]12O | 16.1 µM (inactive) | 20.1 µM (inactive) | 29 µM (inactive) | 20.8 µM (inactive) | 17.7 µM (inactive) | 30.1 µM (inactive) | 20.7 µM (inactive) | 21.7 µM (inactive) | 22.4 µM (inactive) | 30.8 µM (inactive) | 20.7 µM (inactive) | 17 µM (inactive) | 19.8 µM (inactive) | 26.9 µM (inactive) | 30 µM (inactive) | 19.4 µM (inactive) | 24 µM (inactive) |  |  |
| COc1cc(/C=C2\CCc3ccccc3C2=O)ccc1O |  |  |  | 16.9 µM (inactive) | 22.4 µM (inactive) | 21.1 µM (inactive) |  | 14.2 µM (inactive) | 17.9 µM (inactive) | 14.3 µM (inactive) |  | 12 µM (inactive) | 4.24 µM (inactive) | 29.5 µM (inactive) | 34.3 µM (inactive) | 25.4 µM (inactive) |  | 16.1 µM (inactive) | 29 µM (inactive) |
| COc1ccc(S(=O)(=O)c2ccccc2[N+](=O)[O-])cc1 | > 100 µM (inactive) |  |  | 82.6 µM (inactive) | 86.1 µM (inactive) | 53.5 µM (inactive) |  | > 100 µM (inactive) | > 100 µM (inactive) | 78 µM (inactive) | > 100 µM (inactive) | 92.3 µM (inactive) | 55.6 µM (inactive) |  | > 100 µM (inactive) | > 100 µM (inactive) |  | > 100 µM (inactive) |  |
| O=C1C(Cl)=C(OCCCl)C(=O)c2c(O)ccc(O)c21 | 0.755 µM (active) |  | 4.38 µM (inactive) | 14.3 µM (inactive) | 14.8 µM (inactive) | 4.06 µM (inactive) | 17.9 µM (inactive) | 17.7 µM (inactive) | 1.88 µM (inactive) | 5.36 µM (inactive) | 17 µM (inactive) | 0.212 µM (active) | 0.0617 µM (active) | 15.2 µM (inactive) | 7.13 µM (inactive) | 18.6 µM (inactive) |  | 17.3 µM (inactive) |  |
| CCOC(=O)c1csc(-c2nc(CCNC(=O)c3ccccc3)sc2Cl)n1 | 47 µM (inactive) |  |  | 73.8 µM (inactive) | > 100 µM (inactive) | 56.6 µM (inactive) | > 100 µM (inactive) | > 100 µM (inactive) | 58.5 µM (inactive) | 61.2 µM (inactive) | > 100 µM (inactive) | 34.3 µM (inactive) | 41.5 µM (inactive) | 41.1 µM (inactive) | > 100 µM (inactive) | > 100 µM (inactive) | 62.7 µM (inactive) | > 100 µM (inactive) | > 100 µM (inactive) |
| O=C1N(CN2CCOCC2)CN(CN2CCOCC2)C(=O)N1Cc1ccccc1 | 22.8 µM (inactive) | 13.3 µM (inactive) | 26.2 µM (inactive) | 23.3 µM (inactive) | 23 µM (inactive) | 19.3 µM (inactive) | 24.9 µM (inactive) | > 100 µM (inactive) | 19.2 µM (inactive) | 28.1 µM (inactive) | 37.1 µM (inactive) | 20.1 µM (inactive) |  | 23.1 µM (inactive) | 24.5 µM (inactive) | 38.5 µM (inactive) | 20 µM (inactive) | 19.2 µM (inactive) |  |
| CC(=O)c1cccc(NC(=O)/C(=N\NC(=S)NN)C2C(=O)Nc3ccccc3[S+]2[O-])c1 (configuration not stated) | > 100 µM (inactive) | > 100 µM (inactive) | > 100 µM (inactive) | > 100 µM (inactive) | > 100 µM (inactive) | > 100 µM (inactive) |  | > 100 µM (inactive) | > 100 µM (inactive) | > 100 µM (inactive) | > 100 µM (inactive) | > 100 µM (inactive) | > 100 µM (inactive) | > 100 µM (inactive) | > 100 µM (inactive) | 39.1 µM (inactive) | > 100 µM (inactive) | > 100 µM (inactive) | > 100 µM (inactive) |
| O=C1OC(c2ccccc2)=N/C1=C\c1cn[nH]n1 | > 100 µM (inactive) |  | > 100 µM (inactive) | > 100 µM (inactive) | > 100 µM (inactive) | > 100 µM (inactive) | > 100 µM (inactive) | > 100 µM (inactive) | > 100 µM (inactive) | > 100 µM (inactive) | > 100 µM (inactive) | > 100 µM (inactive) | > 100 µM (inactive) | > 100 µM (inactive) | > 100 µM (inactive) | > 100 µM (inactive) | > 100 µM (inactive) | 70.1 µM (inactive) | > 100 µM (inactive) |
| COc1ccccc1Cn1c2c(c3cc(O)ccc31)C(=O)c1ccccc1C2=O | 23.8 µM (inactive) |  | 12.4 µM (inactive) | 16 µM (inactive) | 22.8 µM (inactive) | 76.4 µM (inactive) | 39.4 µM (inactive) | 10.4 µM (inactive) | > 100 µM (inactive) | 48 µM (inactive) | 21.6 µM (inactive) | > 100 µM (inactive) | > 100 µM (inactive) | 11.3 µM (inactive) | 16.6 µM (inactive) |  | 84.3 µM (inactive) | 12.7 µM (inactive) | 36.6 µM (inactive) |
| CC1C2CC(CC(=O)N2)C1(C)C (configuration not stated) | > 100 µM (inactive) | > 100 µM (inactive) | > 100 µM (inactive) | > 100 µM (inactive) | > 100 µM (inactive) | > 100 µM (inactive) | > 100 µM (inactive) | > 100 µM (inactive) | > 100 µM (inactive) | > 100 µM (inactive) | > 100 µM (inactive) |  | > 100 µM (inactive) |  | > 100 µM (inactive) | > 100 µM (inactive) | > 100 µM (inactive) | > 100 µM (inactive) | > 100 µM (inactive) |
| COc1ccc2nc(-c3ccc(O)cc3)sc2c1 | 17.5 µM (inactive) | 16.8 µM (inactive) | 23 µM (inactive) | 19.6 µM (inactive) | 20.6 µM (inactive) |  | 34.7 µM (inactive) | 17.7 µM (inactive) | 22.7 µM (inactive) | 16.1 µM (inactive) | 23.5 µM (inactive) | 27.9 µM (inactive) | 24 µM (inactive) | 29.8 µM (inactive) | 19.1 µM (inactive) | 18.1 µM (inactive) | 25.2 µM (inactive) | 21.4 µM (inactive) |  |
| N#C/C(C(=O)Nc1ccc(Cl)cc1)=C(/N)N1CCOCC1 | > 100 µM (inactive) |  |  | > 100 µM (inactive) | > 100 µM (inactive) | 76 µM (inactive) | 94 µM (inactive) | > 100 µM (inactive) | 86.3 µM (inactive) | 91 µM (inactive) | > 100 µM (inactive) | 64 µM (inactive) |  | > 100 µM (inactive) | > 100 µM (inactive) | > 100 µM (inactive) | 56.9 µM (inactive) | > 100 µM (inactive) |  |
| CC1(C)OC(C(N)=O)=C(C(N)=O)O1 | > 100 µM (inactive) | > 100 µM (inactive) |  | > 100 µM (inactive) | > 100 µM (inactive) | > 100 µM (inactive) |  | > 100 µM (inactive) | > 100 µM (inactive) | > 100 µM (inactive) | > 100 µM (inactive) | > 100 µM (inactive) | > 100 µM (inactive) |  | > 100 µM (inactive) | > 100 µM (inactive) |  | > 100 µM (inactive) |  |
| O=[N+]([O-])c1cccc2nccc(NCCCO)c12 | 13 µM (inactive) | 6 µM (inactive) | 23 µM (inactive) | 14.1 µM (inactive) | 14.8 µM (inactive) | 12.4 µM (inactive) | 16.8 µM (inactive) | 20.1 µM (inactive) | 12.9 µM (inactive) | 16 µM (inactive) | 23 µM (inactive) | 13.9 µM (inactive) | 11.6 µM (inactive) |  | 13.3 µM (inactive) | 6.79 µM (inactive) | 11.7 µM (inactive) | 14.5 µM (inactive) | 13.1 µM (inactive) |
| C=C1C[C@H]2C=Nc3cc(OCCCOc4cc5c(cc4OC)C(=O)N4CC(=C)C[C@H]4C=N5)c(OC)cc3C(=O)N2C1 [SJG-136] | 0.0103 µM (active) | 0.0014 µM (active) | < 0.0108 µM (active) | < 0.01 µM (active) | < 0.01 µM (active) | 0.0141 µM (active) |  |  |  | 0.0208 µM (active) | 0.0122 µM (active) | 0.000136 µM (active) | < 0.01 µM (active) |  | < 0.01 µM (active) |  |  | < 0.01 µM (active) | 0.0426 µM (active) |
| COC(=O)C(C(=O)C(=O)NC1Nc2ccc(C)cc2S1)c1nc2ccc(Cl)cc2nc1O (configuration not stated) | > 100 µM (inactive) | > 100 µM (inactive) | > 100 µM (inactive) | > 100 µM (inactive) | > 100 µM (inactive) | > 100 µM (inactive) |  | > 100 µM (inactive) |  | > 100 µM (inactive) | > 100 µM (inactive) |  | > 100 µM (inactive) | > 100 µM (inactive) | 40.6 µM (inactive) | 60.1 µM (inactive) | > 100 µM (inactive) | > 100 µM (inactive) | > 100 µM (inactive) |
| Cc1ccc(NC(=O)/C=C/c2ccccc2)c(C)c1 | > 100 µM (inactive) | 30 µM (inactive) | 52.1 µM (inactive) | 76 µM (inactive) | 94.8 µM (inactive) | > 100 µM (inactive) | > 100 µM (inactive) | > 100 µM (inactive) | > 100 µM (inactive) |  | 13.9 µM (inactive) | > 100 µM (inactive) | > 100 µM (inactive) |  |  | 26.6 µM (inactive) | > 100 µM (inactive) | > 100 µM (inactive) | 21.7 µM (inactive) |
